The record followed here is patent US11767302B2, “Reagents and methods for tetrazine synthesis” (University of Delaware, priority 2020, dated 2023).

Where “and” joins values, the source holds several entries; their conditions need not be identical. Identical values can stand only once.

One data set deals with T1, human MAGL enzyme (Homo sapiens, UniProt Q99685).
T1 sequence (Q99685 1-303): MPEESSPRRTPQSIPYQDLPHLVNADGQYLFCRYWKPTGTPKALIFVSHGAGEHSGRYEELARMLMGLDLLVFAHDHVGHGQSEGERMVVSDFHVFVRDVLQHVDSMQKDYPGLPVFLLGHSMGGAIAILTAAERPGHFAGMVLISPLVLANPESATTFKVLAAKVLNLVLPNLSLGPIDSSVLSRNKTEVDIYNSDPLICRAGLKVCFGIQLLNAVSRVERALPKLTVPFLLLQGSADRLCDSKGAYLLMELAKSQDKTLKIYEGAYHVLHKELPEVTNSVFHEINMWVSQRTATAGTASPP
Nature of the data set: MAGL in vitro activity assay (7-HCA substrate, fluorescence). Type of data set: biochemical. The conditions noted are these: human MAGL pre-treated 30 min at room temperature, 7-HCA substrate 1 h; read-out: IC50, inhibition of MAGL activity in vitro. On the procedure: MAGL in vitro activity assay. The MAGL in vitro activity assay was performed based on a reported protocol. Briefly, human MAGL enzyme was pre-treated with compounds at room temperature for 30 min, and subsequently incubated with 7-hydroxycoumarinyl arachidonate (7-HCA) as a substrate at room temperature for 1 h. The fluorescence signals were measured on an Envision plate reader (excitation 355 nm, emission 460 nm).

Data set [1] is described as follows: Stopped-flow kinetic analysis of MAGL tetrazines with eq-5-hydroxy-trans-cyclooctene in MeOH at 25° C. Particulars: for kobs: 0.04 mM tetrazine, 0.40 mM trans-cyclooctene, MeOH; for kobs / krel: 25° C.; for krel: relative to 12, MeOH. On the procedure:
Solutions (3 mL) of tetrazines 100a, 100b, 100c and 12 (0.080 mM) was prepared in MeOH. Solutions (3 mL) of eq-5-hydroxy-trans-cyclooctene (0.80 mM) were prepared in MeOH. The reactions between tetrazines and trans-cyclooctene were measured under pseudo-first order conditions using SX 18MV-R stopped-flow spectrophotometer (Applied Photophysics Ltd.). Each solution of tetrazine and trans-cyclooctene were injected in equal volumes via 3 mL syringes into the stopped-flow instrument at 25° C., resulting in final concentration of 0.04 mM of tetrazines and 0.40 mM trans-cyclooctene. The reaction was monitored by the decay of absorbance associated with the tetrazines (10a and 10b at 300 nm, 10c at 280 nm). Reaction were repeated in triplicate. With Prism software, an observed rate constant, kobs, was obtained by nonlinear regression.

The nature of data set [2]: Stopped-flow kinetic analysis of tetrazines with eq-5-hydroxy-trans-cyclooctene in PBS buffer at 25° C. The conditions noted are these: for k2, second order rate constant / kobs: PBS pH 7.4, 25° C.; for k2, second order rate constant: linear regression of kobs; for kobs: 0.025 mM tetrazine; for krel: relative to 5b, PBS, 25° C. On the procedure: Solutions (5 mL) of tetrazines 5b, 6c, 5l, 6a and 4f (0.050 mM) were prepared in PBS buffer (pH 7.4). Solutions (10 mL) of eq-5-hydroxy-trans-cyclooctene (0.50, 0.60, 0.70, 0.80 mM) were prepared in PBS buffer (pH 7.4). The reactions between tetrazines and trans-cyclooctene were measured under pseudo-first order conditions using SX 18MV-R stopped-flow spectrophotometer (Applied Photophysics Ltd.). Each solution of tetrazine and trans-cyclooctene were injected in equal volumes via 3 mL syringes into the stopped-flow instrument at 25° C., resulting in final concentration of 0.025 mM of tetrazines and 0.25, 0.30, 0.35, 0.40 mM trans-cyclooctene. The reaction was monitored by the decay of absorbance associated with the tetrazines (5b at 263 nm, 6c at 268 nm, 5l at 274 nm, 6a at 296 nm, 4f at 266 nm). Reaction were repeated in triplicate. With Prism software, an observed rate constant, kobs, was obtained by nonlinear regression. Second order rate constants, k2, were calculated by linear regression between kobs and final concentration of trans-cyclooctene.

A short description of data set [3]: Tetrazine stability in PBS buffer in ambient light at 25° C. The class given is physicochemical. The conditions noted are these: PBS buffer pH 7.4, ambient light, day 0-5. The procedure:
Solutions (3 mL) of tetrazine 5b, 5l and 6c (400 μM) were prepared in PBS buffer (pH 7.4) in vials and stored in ambient light at 25° C. Tetrazine concentrations were determined by recording the absorbance at 518 nm (6c) and 520 nm (5b and 5l) in cuvettes in day 0, 1, 3 and 5. A solution of 6a (50 μM) was prepared in PBS buffer (pH 7.4) in vials and stored in ambient light at room temperature. Tetrazine concentration was determined by recording the absorbance at 520 nm in cuvettes at day 0, 1, 3 and 5.

The next data set can be described thus: Experimental log P. Type of data set: physicochemical.
Another data set deals with T2, endogenous MAGL (Homo sapiens, UniProt Q99685).
T2 sequence (Q99685 1-303): T1 sequence (Q99685 1-303)
Nature of the data set: Labeling of endogenous MAGL in live cells, gel-based ABPP with TCO-TAMRA. Type of data set: cell-based. On the procedure:
Cell culture and probe treatment. Human brain vascular pericytes were cultured in Dulbecco's Modified Eagle Medium/Nutrient Mixture F-12 (DMEM/F-12) GlutaMAX media supplemented with 5% heat-inactivated fetal bovine serum (HI FBS), 1× pericyte growth supplement (PGS), and 1× penicillin-streptomycin at 37° C. with 5% CO2 in a humidified environment. Probe treatment was performed in duplicates. Cells were plated in 6-well plates and cultured overnight in growth media. Live cells were then treated with 300 nM KML29 as a competitor compound (or DMSO as a control) at 37° C. for 1 h. Cells were subsequently treated with probe 9 (0.3 nM-3.2 μM) at 37° C. for 1 h (cells pre-treated with KML29 were treated with 32 nM of probe 9), after which the cells were washed with fresh growth media. The media were then placed with fresh media containing 2 μM of TCO-TAMRA, and the cells were incubated at 37° C. for 30 min. To quench the reaction, the media were replaced with PBS containing 100 μM tetrazine amine, and the cells were washed with cold PBS and harvested with a scrapper. The suspensions were centrifuged at 10,000×g for 1 min at 37° C., and the cell pellets were lysed in PBS containing 0.25% sodium dodecyl sulfate (SDS) with sonication. The protein concentration was measured with a bicinchoninic acid (BCA) assay kit (Thermo Scientific) and normalized. In-gel fluorescence and data analysis. The proteomes were analyzed with 1.0 mm thick 4-12% bis-tris 15-well protein gels in 2-(N-morpholino)ethanesulfonic acid (MES) buffer. The gels were scanned with a Typhoon FLA 9500 Biomolecular Imager (GE Healthcare) with the TAMRA channel with 532 nm excitation and a 575 nm long pass emission filter. To measure the total protein loading, the gels were treated with ClearPage Instant Blue (CBS Scientific) overnight, and after brief destaining with water, scanned with an Odyssey Imager (Li-COR) at the 700 nm channel. The in-gel fluorescence images were processed with ImageJ software (v1.47, NIH), and the intensities were quantified with Image Studio (v5.2, Li-COR) with background subtraction. The coomassie images were processed and quantified with the Image Studio software with background subtraction. For analysis of the cellular potency, the in-gel fluorescence intensities of the two MAGL bands were averaged, normalized with the total coomassie intensity of the corresponding sample, and fitted with a dose-response equation with Prism v7.02 (GraphPad). […] The media were then placed with fresh media containing 2 μM of TCO-TAMRA, and the cells were incubated at 37° C. for 30 min. […] The protein concentration was measured with a bicinchoninic acid (BCA) assay kit (Thermo Scientific) and normalized. In-gel fluorescence and data analysis. […]

A short description of data set [4]: Stopped-flow kinetics of 9 versus 10 with axial 5-hydroxy-trans-cyclooctene in methanol. The conditions noted are these: 25° C.; for kobs, average rate constant: 0.05 mM tetrazine, 0.5 mM trans-cyclooctene. The procedure:
0.1 mM solutions (10 mL) in methanol were prepared from stock solutions of 9 (16.3 mg in 632 μL DMF, 50 mM) and 10 (10.0 mg in 422 μL MeOH, 100 mM). A 1.0 mM solution (25 mL) in methanol of axial 5-hydroxy-trans-cyclooctene 11 was also prepared from a stock solution (29.0 mg in 460 μL MeOH, 500 mM). The reaction between tetrazine and a trans-cyclooctene was measured under pseudo-first order conditions using a SX 18MV-R stopped-flow spectrophotometer (Applied Photophysics Ltd.). The 0.1 mM solution of tetrazines 9 or 10 and the 1.0 mM solution of trans-cyclooctene 11 were injected as equal volumes via syringe into the stopped-flow instrument which was held at 25° C., resulting in a final concentration of the tetrazine of 0.05 mM and a final concentration of the trans-cyclooctene of 0.5 mM. The reaction was monitored by the absorbance decay of tetrazine measured at 290 nm. Data points were collected every 0.1 second for 400 seconds and reaction was repeated in triplicate. Prism software was used to obtain the observed rate of each reaction, kobs, which was determined by nonlinear regression analysis resulting in average rate constants of 0.01033 s^−1 for 9 and 0.00975 s^−1 for 10. The relative rate, krel, of 9 versus 10 was thus determined to be 1.06.

With `C=C(OCC)c1nnc(-c2ccc(S(=O)(=O)NCC3CCN(C(=O)OC(C(F)(F)F)C(F)(F)F)CC3)cc2)nn1` [100b, 1,1,1,3,3,3-hexafluoropropan-2-yl 4-((4-(6-(1-ethoxyvinyl)-1,2,4,5-tetrazin-3-yl)phenylsulfonamido)methyl)piperidine-1-carboxylate], the IC50 on human MAGL enzyme is 46 nM. Moreover, in data set [1], the kobs was 0.031 s⁻¹ and the krel was 25. Also, in data set [1] (stopped flow kinetics with 5-hydroxyTCO), the “fold more reactive than 100a” value came out at 8.6 fold.
For `C=C(OCC)c1nnc(-c2ccccc2)nn1` [6a, 3-(1-ethoxyvinyl)-6-phenyl-1,2,4,5-tetrazine], in data set [2], the “k2, second order rate constant” value amounted to 2007 ± 101.3 M⁻¹ s⁻¹. The kobs in data set [2] (TCO 0.25 mM) amounted to 0.52 s⁻¹; in data set [2] (TCO 0.30 mM) it was 0.62 s⁻¹; in data set [2] (TCO 0.35 mM), 0.70 s⁻¹; in data set [2] (TCO 0.40 mM) it was 0.83 s⁻¹. Besides, the krel in data set [2] worked out at 10. Further, the decomposition per day in data set [3] was 0.8%.
As for `COC(=O)CCc1nnc(-c2ccoc2)nn1` [5l, methyl 3-(6-(furan-3-yl)-1,2,4,5-tetrazin-3-yl)propanoate], in data set [2] (reaction with 5-hydroxyTCO), the “times less reactive than 5b” value was 2.9 times. This compound also had a decomposition per day in data set [3] of 1.7%. The logP in “Experimental log P” is 1.2.
In the case of `COC(=O)CCc1nnc(-c2cccc(C#N)c2)nn1` [5i, methyl 3-(6-(3-cyanophenyl)-1,2,4,5-tetrazin-3-yl)propanoate], the “k2, second order rate constant” value in data set [2] was 69.88 ± 4.824 M⁻¹ s⁻¹. Moreover, the kobs came to 0.21 s⁻¹ in data set [2] (TCO 0.25 mM), 0.24 s⁻¹ in data set [2] (TCO 0.30 mM), 0.029 s⁻¹ in data set [2] (TCO 0.35 mM) and 0.032 s⁻¹ in data set [2] (TCO 0.40 mM). The compound further showed a krel in data set [2] of 0.35.
Take `COC(=O)CCc1nncnn1` [4f, methyl 3-(1,2,4,5-tetrazin-3-yl)propanoate]: in data set [2], the “k2, second order rate constant” value was 1591 ± 25.74 M⁻¹ s⁻¹. Further, the kobs came to 0.53 s⁻¹ in data set [2] (TCO 0.25 mM), 0.61 s⁻¹ in data set [2] (TCO 0.30 mM), 0.68 s⁻¹ in data set [2] (TCO 0.35 mM) and 0.77 s⁻¹ in data set [2] (TCO 0.40 mM). In data set [2], this compound showed a krel of 8.0.
On to `Cc1nnc(-c2ccc(-n3ccc(C4CCN(C(=O)OC(C(F)(F)F)C(F)(F)F)CC4)n3)cc2)nn1` [compound 9, 1,1,1,3,3,3-hexafluoropropan-2-yl 4-(1-(4-(6-methyl-1,2,4,5-tetrazin-3-yl)phenyl)-1H-pyrazol-3-yl)piperidine-1-carboxylate], for which the IC50 was found to be 31 nM on human MAGL enzyme and 8 nM on endogenous MAGL (human brain vascular pericytes, probe 1 h, then 2 μM TCO-TAMRA 30 min, in-gel fluorescence, read-out: cellular IC50 of MAGL labeling). Besides, the “off-target labeling in live cells” value on endogenous MAGL (human brain vascular pericytes, in-gel fluorescence, consistent with ABHD6) is “labeled an additional protein at ˜35 kDa”. In addition, the “kobs, average rate constant” value in data set [4] is 0.01033 s⁻¹. Also, in data set [4], the “krel of 9 versus 10” value was 1.1 and 1.06.
As to `O=C(OC(C(F)(F)F)C(F)(F)F)N1CCC(CNS(=O)(=O)c2ccc(-c3nnc(-c4ccoc4)nn3)cc2)CC1` [100a, 1,1,1,3,3,3-hexafluoropropan-2-yl 4-((4-(6-(furan-3-yl)-1,2,4,5-tetrazin-3-yl)phenylsulfonamido)methyl)piperidine-1-carboxylate], at human MAGL enzyme, the IC50 worked out at 12 nM. For the same compound, in data set [1], the kobs was 0.003623 s⁻¹ and the krel amounted to 3.
As to `O=C(OC(C(F)(F)F)C(F)(F)F)N1CCC(C(O)(c2ccc3c(c2)OCO3)c2ccc3c(c2)OCO3)CC1` [KML29, reference compound], the “competition of probe 9 labeling of MAGL” value at endogenous MAGL (probe 9 32 nM 1 h after pre-treatment with KML29 300 nM 1 h) is given as “competed”.
`Cc1nnc(-c2ccc(CN)cc2)nn1` [compound 10, 3-methyl-6-(4-aminomethyl)tetrazine, reference compound]: the “kobs, average rate constant” value in data set [4] is 0.00975 s⁻¹.

The IC50 is the concentration that inhibits the measured activity by half. As a reminder, the logP is a log measure of how a compound divides between an organic and an aqueous phase.
